Measured values from PubChem BioAssay (NCI).
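Briefly, cells in 96-well plates were exposed to five compound concentrations for 48 h, and endpoints were estimated by linear interpolation. GI50 = concentration required for 50% inhibition of growth. TGI is the concentration that stops growth completely.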

Tests used:
Assay in all cases: inhibition of tumour cell growth, NCI panel, 48 h
[1] = test system: 786-0 renal
[2] = test system: HOP-92 NSCLC
[3] = test system: UACC-257 melanoma
[4] = test system: IGROV1 ovarian
[5] = test system: A498 renal
[6] = test system: HCT-15 colon
[7] = test system: SN12C renal
[8] = test system: COLO 205 colon
[9] = test system: KM12 colon
[10] = test system: SW-620 colon

SMILES	GI50 [1] [µM]	TGI [1] [µM]	GI50 [2] [µM]	TGI [2] [µM]	TGI [3] [µM]	GI50 [4] [µM]	TGI [4] [µM]	GI50 [5] [µM]	TGI [5] [µM]	GI50 [6] [µM]	TGI [6] [µM]	GI50 [7] [µM]	TGI [7] [µM]	GI50 [8] [µM]	TGI [8] [µM]	GI50 [9] [µM]	TGI [9] [µM]	GI50 [10] [µM]	TGI [10] [µM]	GI50 [3] [µM]
O=C(/C=C/c1ccco1)Nc1ncc(Cc2ccc(F)cc2)s1	0.157	> 100	8.56	> 100	> 100	0.167	> 100	0.027	0.0975	0.0461	> 100	0.189	> 100	0.0352	0.137	0.0486	> 100	0.0443	> 100	–
Cc1ccc(Nc2ccc(Nc3ccc(C)cc3)c3c2C(=O)c2c(O)ccc(O)c2C3=O)cc1	–	> 100	–	> 100	> 100	–	> 100	–	> 100	–	> 100	–	> 100	–	> 100	–	> 100	–	> 100	–
O=c1[nH]c(=S)[nH]c(O)c1/C=C1\C=CC=N1	–	24.8	–	36.1	72.4	–	65	–	84.3	–	14.8	–	22.5	–	32	–	39.6	–	23.5	–
O=C1/C(=C/c2cccs2)CCC/C1=C\c1cccs1	49.8	> 100	10.6	57.8	> 100	30.3	98.5	31.4	> 100	> 100	> 100	> 100	> 100	> 100	> 100	> 100	> 100	> 100	> 100	79.1
CC[C@H](C)[C@H](NC(=O)C12C3C4C1C1C2C3C41NC(C)=O)C(=O)N(C)[C@H](C[C@@H](OC(C)=O)c1nc(C(=O)N[C@@H](Cc2ccccc2)C[C@H](C)C(=O)OC)cs1)C(C)C (some centres undefined)	0.902	> 14.3	> 14.3	> 14.3	> 14.3	0.593	> 14.3	0.503	10.2	2.41	> 14.3	0.799	> 14.3	0.346	1.71	0.471	> 14.3	0.206	> 14.3	0.563
CCC1(CN(C)C)CC/C(=C\c2ccc3c(c2)OCO3)C1=O (centres undefined)	–	> 100	–	> 100	> 100	–	> 100	–	> 100	–	> 100	–	> 100	–	> 100	–	> 100	–	> 100	–
c1ccc(-c2nc(N3CCNCC3)c3nc(-c4ccccc4)oc3n2)cc1	1.63	3.46	1.5	3.1	3.81	1.65	3.14	1.42	2.76	1.66	3.18	1.69	3.29	2.06	4.12	1.91	3.6	1.86	3.57	1.93
COc1ccc(/C=C2\N=C3SC=C(N)N3C2=O)cc1	1.28	2.7	0.224	1.93	5.33	0.499	2.39	0.177	1.37	0.817	3.98	1.57	7.35	1.13	4.23	3.08	15.6	1.34	6.07	1.06
COc1ccc2c3c(c(OCCCN(C)C)nc2c1)-c1ccc(Cl)cc1C3=O	1.76	3.64	1.78	11.8	33	1.73	25.9	5.66	16.5	1.79	10.6	5.33	21.3	5.57	26.6	4.01	18	1.56	12.9	16.4
Cc1nc(C(N)=S)sc1C(=O)/C=C/c1cccc(O)c1	–	> 100	–	> 100	> 100	–	> 100	–	> 100	–	> 100	–	> 100	–	> 100	–	> 100	–	> 100	–
CCC1(OC(C)=O)C(=O)OCc2c1cc1n(c2=O)Cc2cc3ccccc3nc2-1 (centres undefined)	–	> 31.1	–	> 100	> 100	–	> 100	–	25.5	–	> 100	–	> 91.9	–	> 100	–	> 100	–	> 100	–
Cn1c(=O)c2[nH]c(COc3ccc(C(C)(C)C)cc3)nc2n(C)c1=O	19.5	> 100	0.428	30.6	31.6	14.1	44.5	4.94	60.1	19.9	> 100	33.4	> 100	50.3	> 100	15.9	44	27	> 100	6.03
CC/C=C\CCC/C=C1/C(=O)C=C[C@@H]1C/C=C\CCCC(=O)O	4.37	15.1	13.2	27	23.7	4.12	15.9	18.4	33.9	1.93	4.52	3.05	8.5	5.83	18.4	2.46	6.62	4.46	18	10.5
Cn1c(O)c(C(=O)Nc2ccc([N+](=O)[O-])cc2)c(=O)n(C)c1=S	–	8.81	–	4.7	6.36	–	10.1	–	2.17	–	7.02	–	> 70.7	–	19.9	–	7.05	–	31.3	–
